Measured values published in US12329774B2, “Method and composition for enhancing the quality and benefits of sleep” (priority 2020, dated 2025).

Tests used:
MDA, SOD, CAT, GSHPx = test: Brain antioxidant status in caffeine-induced wakefulness mice; type: in vivo; conditions: for CAT / GSHPx / SOD / MDA: caffeine followed by saline (C) or test article (20 mg theanine/kg), means and standard deviations
Description: Animals were anesthetized with urethane ([…], i.p., Sigma U2500). Body temperature was maintained between 36.5 and 37° C. with homeothermic blanket. Mice were stabilized under a stereotaxic frame (World Precision Instruments, Berlin; Germany) and an incision was made on the skin along the anterior/posterior line of the skull. The left […] was removed gently with a dental drill (Marothon-3; Korea). Two Ag-AgCl sphere electrodes were placed over the left hemisphere with the reference electrode attached on the pinna. […] Brains were rapidly removed, frozen on dry ice and stored at -80° C. until analyses could be performed. Biochemical and Oxidative Stress Markers-Serum melatonin, serotonin, and dopamine were measured using ELISA kits. Brain levels of malondialdehyde (MDA) were measured by HPLC. Brain activities of superoxide dismutase (SOD), catalase (CAT) and glutathione peroxidase (GSHPx) were measured using ELISA kits for each analyte.

[1] = system: caffeine-induced wakefulness mice; test: Caffeine-induced wakefulness mouse model: sleep latency, sleep duration, number falling asleep; type: in vivo; conditions: caffeine-induced wake mouse; caffeine alone or + test article (20 mg theanine/kg)
Description: Animals and Experimental design: Seven male BALB/c mice per treatment arm (age: 8 weeks, weight: […]) were housed in a controlled environment with a 12:12-h light-dark cycle at 22° C. and were provided with mice chow and water ad libitum. All experiments were conducted under the National Institutes of Health's Guidelines for the Care and Use of Laboratory Animals and approved by the Ethics Committee of the Medipol University.
Drugs and materials: Study product was provided by Nutrition21 LLC (Mg-Theanate #1=lot AA209-122-20, Mg-Theanate #2=lot BLS-DN 13). […] The concentration of each drug solution was adjusted so that the volume injected was constant at 1.0 ml/kg BW. All drug solutions were prepared fresh daily, and were administered intraperitoneally (i.p.). […]

[2] = system: brain serotonin, dopamine and melatonin; test: Brain neurotransmitter levels by ELISA in caffeine-induced wakefulness mice; type: in vivo; conditions: for Dopamine / Melatonin / Serotonin: brain, caffeine followed by saline (C) or test article (20 mg theanine/kg), ELISA, means and standard deviations
wakefulness = conditions: 7.5 mg/kg i.p.; Kwon et al., 2006; cited from earlier work
[3] = system: brain waves (spike amplitude / spike frequency); test: Electrocorticography (ECoG) of brain electrical activity in caffeine-induced wakefulness mice; type: in vivo; conditions: caffeine-induced wake mouse; electrical activity over 120 minutes; result in words; listed as Theanine
Description: Animals were anesthetized with urethane ([…], i.p., Sigma U2500). Body temperature was maintained between 36.5 and 37° C. with homeothermic blanket. Mice were stabilized under a stereotaxic frame (World Precision Instruments, Berlin; Germany) and an incision was made on the skin along the anterior/posterior line of the skull. The left […] was removed gently with a dental drill (Marothon-3; Korea). Two Ag—AgCl sphere electrodes were placed over the left hemisphere with the reference electrode attached on the pinna.
Brains were rapidly removed, frozen on dry ice and stored at −80° C. until analyses could be performed.

[4] = system: stimulatory action of caffeine; conditions: rats, EEG, Kakuda et al. [13]; cited from earlier work
[5] = Nathan [17]; cited from earlier work
[6] = system: Bax, Bcl-2, Caspase-3, eNOS, iNOS; test: Western blot of brain cell survival indicators in caffeine-induced wakefulness mice; conditions: caffeine-induced wake mouse; result in words; listed as Theanine
[7] = system: pentobarbital-induced sleep; test: Pentobarbital-induced sleep test mouse model; type: in vivo, mice; conditions: for Duration of sleep / Sleep latency period: pentobarbital 42 mg/kg, test article 20 mg theanine/kg per os 45 min before, result in words
Description: Subsequently, pentobarbital was administered intraperitoneally to induce a hypnotic state that promoted sleep. The effects on sleep of the test agents were monitored.
Pentobarbital-induced sleep was performed according to published methods with slight modifications. Mice were fasted for 24 h prior to the experiment. Each test article was dissolved or suspended in physiological saline and then was administered per os. The groups were administered doses of 20 mg/kg theanine, Mg-theanate #1 (20 mg theanine/kg), and Mg-theanate #2 (20 mg theanine/kg), respectively. Forty-five minutes later, a hypnotic dose of pentobarbital (42 mg/kg) was injected into the left side of the abdomen. After injection, the mice were placed in individual cages and subjected to measurements of sleep latency and duration. Sleep latency was defined as the period between pentobarbital injection and the loss of righting reflex (sleep onset), and sleep duration denoted the time elapsed between loss of the righting reflex and recovery.
Statistical Analyses—Data are shown as mean±SEM. Sample size was calculated based on a power of 85% and a p-value of 0.05. Given that assumption, a sample size of seven per treatment was calculated. The data were analyzed using the GLM procedure of SAS (SAS Institute: SAS User's Guide: Statistics). The treatments were compared using ANOVA and Student's unpaired t-test; P<0.05 was considered statistically significant.

sleep cycle = conditions: Jang et al. [11], cited from earlier work
[8] = Ates et al. [2]; comparison in words; cited from earlier work
[9] = 500 mg magnesium daily, 8 weeks, cited from earlier work
[10] = caffeine-induced wake mouse, result in words
[11] = caffeine-induced wake mouse model, 20 mg/kg

Cn1c(=O)c2c(ncn2C)n(C)c1=O [C, Caffeine, reference compound]
CAT (MDA, SOD, CAT, GSHPx): 24.40 + 1.62a IU/mg protein
GSHPx (MDA, SOD, CAT, GSHPx): 12.07 + 2.89b IU/mg protein
SOD (MDA, SOD, CAT, GSHPx): 89.00 + 5.16a IU/mg protein
Level of MDA (indicator of oxidative stress) (MDA, SOD, CAT, GSHPx; [10]): Caffeine: The level of MDA (an indicator of oxidative stress) was significantly increased,
Number of animals falling asleep (share of the group that fell asleep) [1]: Caffeine: only 50% of the group fell asleep
Sleep latency period [1]: Caffeine: The sleep latency period doubled to about 2 minutes in caffeine-treated animals.
Dopamine [2]: 584.86 + 72.47d ng/g
Melatonin [2]: 0.59 + 0.05a pg/g
Serotonin [2]: 571.00 + 42.14d ng/g
Neurotransmitter levels (brain serotonin, dopamine, and melatonin) [2, 10]: Caffeine: Levels of all three neurotransmitters were significantly reduced, reflecting the
Time for which wakefulness is maintained (wakefulness): at least 2 h

CCNC(=O)CCC(N)C(=O)O [CMgT1, magnesium di-L-theanate]
CAT (MDA, SOD, CAT, GSHPx): 36.47 + 1.27b IU/mg protein
MDA (MDA, SOD, CAT, GSHPx): 2.24 + 0.14c nmol/g
SOD (MDA, SOD, CAT, GSHPx): 131.14 + 9.86b IU/mg protein
Dopamine [2]: 832.71 + 74.50bc ng/g
Melatonin [2]: 0.80 + 0.03b pg/g
Serotonin [2]: 762.29 + 25.34b ng/g

CCNC(=O)CCC(N)C(=O)O [CMgT2, magnesium di-L-theanate]
CAT (MDA, SOD, CAT, GSHPx): 35.96 + 2.52b IU/mg protein
GSHPx (MDA, SOD, CAT, GSHPx): 19.11 + 2.39ab IU/mg protein
MDA (MDA, SOD, CAT, GSHPx): 2.24 + 0.09c nmol/g
SOD (MDA, SOD, CAT, GSHPx): 137.29 + 5.99b IU/mg protein
Dopamine [2]: 895.57 + 61.93ab ng/g
Melatonin [2]: 0.85 + 0.04b pg/g
Serotonin [2]: 751.43 + 30.34b ng/g

CCNC(=O)CCC(N)C(=O)O (stereo not shown) [CT, 2-amino-4-(ethylcarbamoyl)-butyric acid, reference compound]
CAT (MDA, SOD, CAT, GSHPx): 29.51 + 2.06c IU/mg protein
GSHPx (MDA, SOD, CAT, GSHPx): 15.56 + 7.94ab IU/mg protein
MDA (MDA, SOD, CAT, GSHPx): 2.46 + 0.17b nmol/g
SOD (MDA, SOD, CAT, GSHPx): 117.14 + 13.89c IU/mg protein
Levels of protective enzymes (SOD, CAT, GSHPx) (MDA, SOD, CAT, GSHPx; caffeine-induced wake mouse, result in words, listed as Theanine): decreased, but the changes were not as great as those shown by caffeine treatment.
Amplitude of brain waves [3]: + Theanine: Within about 30 minutes, the amplitude of brain waves increased significantly
Spike frequency of electrical activity in the brain [3]: significantly reduced, as compared to caffeine-treated animals.
Intravenous dose that could inhibit the stimulatory action of caffeine [4]: higher than 0.78 mg/kg
Time to cross the blood-brain barrier after oral administration [5]: ≤ 30 min
Number of animals falling asleep (share of the group that fell asleep) [1]: + Theanine: 62.5% of the group fell asleep
Sleep latency period [1]: + Theanine: The sleep latency period increased from about 1 to about 1.5 minute, a minutes
Brain cell survival (Bax, Bcl-2, Caspase-3, eNOS, and iNOS, indicators of cell damage) [6]: + Theanine: Administration of theanine caused trends toward normalization of these
Dopamine [2]: 779.00 + 77.73c ng/g
Melatonin [2]: 0.69 + 0.08c pg/g
Serotonin [2]: 655.43 + 35.46c ng/g
Animals that failed to sleep during the 10-minute period following pentobarbital administration ([7]; 20 mg/kg per os): About 62%
Duration of sleep [7]: significantly increased
Sleep latency period [7]: significantly reduced
Duration of sleep ([7]; listed as L-theanine): significantly increased
Sleep latency period ([7]; listed as L-theanine): significantly decreased
REM time during the sleep cycle (sleep cycle; [11]): increases
Sleep latency (sleep cycle; [11]): significantly decrease
Sleep time (sleep cycle; [11]): increase
NREM time, chronic administration (sleep cycle; chronic administration): significant increase
NREM time, single doses (sleep cycle; single doses): little effect

O=C([O-])CC(O)C(=O)[O-].[Mg+2] (stereo not shown) [magnesium malate]
Absorption (and bioavailability) of magnesium [8]: more poorly absorbed than certain magnesium complexes with amino acids

[Mg+2] [magnesium]
Concentration of serum renin vs placebo ([9]; P<0.001): statistically significant increases
Sleep time vs placebo ([9]; P=0.002): statistically significant increases
Concentration of melatonin vs placebo ([9]; P=0.007): statistically significant increases
Sleep efficiency vs placebo ([9]; P=0.03): statistically significant increases
Early morning wakening time [9]: shortened
Insomnia Severity Index scores ([9]; subjective measure): improved

magnesium acetyl taurate
Absorption (and bioavailability) of magnesium [8]: significantly better absorption and bioavailability than magnesium glycinate

magnesium citrate
Absorption (and bioavailability) of magnesium [8]: more poorly absorbed than certain magnesium complexes with amino acids
